Consider two compounds from paper PMC9323733, “Efficacy of Vafidemstat in Experimental Autoimmune Encephalomyelitis Highlights the KDM1A/RCOR1/HDAC Epigenetic Axis in Multiple Sclerosis” (Pharmaceutics, 2022).

Each structure is given as a SMILES string. Entries after “also recorded” stand apart in the source; their conditions may differ.

Data set [1] relates to patients and healthy volunteers. Particulars: cited from earlier work.
Another data set concerns lymphocytes. Kind of data set: GLP toxicological studies, lymphocyte count, rats. Format: in vivo, Wistar rats. Particulars: mean ± SD. An excerpt:
(§1) T r eat m e nt N Ly m p h o c y te s Equivalent m ou se d o se
(§2) ( mg /k g p. o. ga va g e) (109/ L ) ( mg /k g p.o ga va ge)
(§3) 6 m ont h s W i sta r r at s
(§4) 9 m ont h s Be ag le d og s
(§5) Eff ec t of t r ea t me nt wi t h O RY-2 00 1 a d mi ni st e r e d by or al ga va ge o n l y m ph oc yt e s ob se r ve d i n G LP
(§6) t ox i c ol ogi c a l st udi e s i n r at a nd do g. A ni ma l s we r e t re a t e d or al l y (fi ve c o ns e c ut i ve da ys/ we e k) by ga va ge
(§7) 28 da ys or 6 mo nt hs ( ra t s) a nd 28 da ys or 9 mo nt hs (dogs). Data re prese nt de me a n ± S D. T he e q ui va l e n t
(§8) dos e i n m o use i s i n di c at e d. 1-wa y A N OV A a n d D u n ne t t’ s M ul ti pl e C o m pa ri so n t e st wa s use d.

The subject of data set [2] is SJL/J mice infected with TMEV. The data set is described as follows: Theiler's murine encephalomyelitis virus (TMEV) model. The class given is in vivo, mouse. The method, then: Susceptible SJL/J mice (6 weeks old), previously anesthetized with isoflurane, were inoculated in the cerebral parenchyma with 2 × 10^6 plaque forming units (pfu) of the Daniel’s strain of TMEV, diluted in 30 μL of Dulbecco’s Modified Eagle Medium (DMEM) supplemented with 5% fetal bovine serum (FBS). The injection takes place in the right hemisphere of the cerebral cortex using a Hamilton syringe coupled to a pipette tip in such a way that it allows for an exposure of the needle of about 2–3 mm; thus, the virus is always injected at the same depth. Sham animals are subjected to the same protocol, but they only received 30 µL of DMEM supplemented with 5% fetal bovine serum. […] Control mice were treated with vehicle [2% v/v Tween-80 + 98% HPβCD (13% w/v)] following the same administration regime (Figure 4a). The animals were weighed every week from the onset of infection and clinical signs were evaluated using the criterion described by Moses Rodriguez (Mayo Clinic), source of the Daniel’s strain of TMEV to assess the severity of the disease by the general appearance: Score 1 = Shaggy and scruffy hair; 2 = scruffy appearance and hunched back; 3 = no spontaneous movement, reduced induced activity; and Gait: Score 1 = mild ataxia with inconsistent waddling gait; 2 = moderate ataxia with consistent waddling gait; 3 = severe ataxia with reduced righting response; 4 = spastic paresis of hind legs. The score of the animals and motor behavior were analyzed by trained observers blind to treatment and experimental groups.
The screening for locomotor activity was performed by analyzing spontaneous motor activity using an Activity Cage (Activity Monitor System Omnitech Electronics, Inc., Columbus, OH, USA) and by evaluating the mice performance in the Rotarod test. The activity cage consists of a four-compartment metacrylate cage, surrounded by sensors in such a way that it registers the movements of the mouse in both vertical and horizontal position and ambulation. The test consists of introducing the mice into two compartments of the cage placed diagonally so as not to interfere with the sensors of the other mouse. During two five-minute cycles (0–5 min, 5–10 min), horizontal activity (HACTV) or vertical activity (VACTV) are recorded. The first cycle evaluates the spontaneous activity in a new environment and the second measures the activity of the animal once habituated to the new environment. This task was performed on days 60, 70, 78, and 86 post-infection. The rotarod (Ugo Basile, Milan, Italia) consists of a rotating cylinder (roll) suspended above a cage floor turning at a constant speed or acceleration. The system is completed with a stopwatch for each compartment that stops when the mouse falls from the roll to a lever on the bottom of the device. One week prior to the test, mice were trained and familiarized with the test for one minute at a constant speed. The length of time that mice stay on the rotating roll is a measure of their balance and motor coordination. The test consists of measuring the time that mice remain on the roll with constant acceleration for a maximum time of five minutes. Mice that developed strategies to stay on the roll (p.e. seeking support on the wall) were excluded from evaluation. The rotarod test was performed on day 72, 78, and 86 post-infection.
Cervical and lumbar spinal cord segments of spinal cords obtained from EAE mice sacrificed on day 17 or 26 post-immunization were divided and processed for inclusion and sectioning in paraffin and for inclusion in an optimal cutting temperature (OCT) compound and future cryosectioning of the samples. Spinal cord segments were immediately fixed with buffered 10% formalin for 48 h, dehydrated and included in paraffin using standard techniques. […]

For the next data set, the system named is circulating lymphocytes. Kind of data set: Toxicity studies, overall statements (circulating lymphocytes, gastrointestinal toxicity). Format: in vivo, rat and dog. Particulars: for total number of circulating lymphocytes: at doses effective in EAE and TMEV models.
Excerpt: as §1, §2, §3, §4, §5, §6, §7, §8

The target of the next data set is T1, recombinant HDAC2 (Homo sapiens, UniProt Q92769).
T1 construct: purchased BPS Bioscience 50002
T1 sequence (Q92769 whole entry): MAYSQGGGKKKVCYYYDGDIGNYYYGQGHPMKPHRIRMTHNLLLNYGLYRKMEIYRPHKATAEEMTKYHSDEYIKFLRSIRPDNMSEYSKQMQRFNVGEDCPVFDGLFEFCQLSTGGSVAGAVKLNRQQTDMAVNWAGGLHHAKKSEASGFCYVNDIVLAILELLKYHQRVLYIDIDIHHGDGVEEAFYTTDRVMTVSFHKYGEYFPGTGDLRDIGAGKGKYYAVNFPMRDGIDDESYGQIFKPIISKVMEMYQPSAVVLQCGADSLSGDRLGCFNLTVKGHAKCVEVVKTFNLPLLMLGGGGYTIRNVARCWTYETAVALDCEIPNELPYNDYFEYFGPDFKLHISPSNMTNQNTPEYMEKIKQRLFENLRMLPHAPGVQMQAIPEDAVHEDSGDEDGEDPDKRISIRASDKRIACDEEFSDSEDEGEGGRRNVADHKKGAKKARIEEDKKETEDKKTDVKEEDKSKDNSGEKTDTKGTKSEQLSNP
The data set is described as follows: HDAC2 fluorimetric biochemical assay. As to the method: HDAC2 activity was determined using a fluorimetric assay at BPS Bioscience (San Diego, CA, USA). Compounds were dissolved in DMSO (Sigma), and serial dilutions were further diluted in HDAC assay buffer (BPS). These working solutions were incubated in duplicate at room temperature for 3 h in a mixture containing HDAC assay buffer, BSA (Fisher Scientific), and recombinant HDAC2 (BPS). The enzymatic reactions were initiated by the addition of a fluorogenic, acetylated peptide substrate (BPS) and proceeded for 30 min at 37 °C. Then, HDAC assay developer (BPS) was added, and after further incubation at room temperature, fluorescence intensity was measured at an excitation of 360 nm and an emission of 460 nm using a Tecan Infinite M1000 microplate reader. Trichostatin A (TSA, Selleckchem, Houston, TX, USA) was used as a reference inhibitor.
For the biochemical assays, the fluorescence signal relative to the background (assay mixture in the absence of the enzyme) was subtracted from each fluorescent intensity data. Activity in the presence of compound was expressed as a percentage of fluorescence intensity in the absence of the compound.

For the compound `Nc1nnc(CN[C@@H]2C[C@H]2c2ccc(OCc3ccccc3)cc2)o1` [ORY-2001], the “YKL40 levels in patients” value in data set [1] (AD Phase II trial ETHERAL, relative to placebo) was “significantly reduced relative to placebo”. For the same compound, the aggression entry in data set [1] (BPD, ADHD, ASD and moderate-severe AD, Phase IIa REIMAGINE and REIMAGINE-AD) is given as “significantly reduced aggression”. For the same compound, the safety in humans result in data set [1] (more than 300 subjects in multiple studies) is listed as “has been shown to be safe”. Further, the “safety and tolerability, long-term treatment” value in data set [1] (relapse-remitting and secondary progressive MS, SATEEN) is “safe and well tolerated”. Also, the Lymphocytes in the data set with lymphocytes (6 months Wistar rats, 0.07 mg/kg p.o. gavage (equivalent mouse dose 0.14)) is listed as 3.25 ± 0.75 109/L; in the data set on lymphocytes (6 months Wistar rats, 0.20 mg/kg p.o. gavage (equivalent mouse dose 0.40)) it was 4.02 ± 0.99 109/L; in the data set on lymphocytes (6 months Wistar rats, 0.40 mg/kg p.o. gavage (equivalent mouse dose 0.80)) it was 3.72 ± 1.12 109/L; in the data set with lymphocytes (28 d Wistar rats, 0.07 mg/kg p.o. gavage (equivalent mouse dose 0.14)), 3.65 ± 1.39 109/L; in the data set with lymphocytes (28 d Wistar rats, 0.20 mg/kg p.o. gavage (equivalent mouse dose 0.40)), 3.44 ± 0.62 109/L; in the data set with lymphocytes (28 d Wistar rats, 0.60 mg/kg p.o. gavage (equivalent mouse dose 1.20)), 3.89 ± 1.14 109/L. For the same compound, the “CD4 and CD8 lymphocytes in spinal cord parenchyma” value in data set [2] (p.o. 0.3 and 1.0 mg/kg) was “decreased the accumulation of CD4 and CD8 lymphocytes into the parenchyma”. Further, in data set [2] (p.o. 0.3 and 1.0 mg/kg), the body weight result is on record as “did not produce any body weight changes”. In addition, in data set [2] (p.o. 0.3 and 1.0 mg/kg), the “horizontal activity (activity cage)” value was “significantly improved the motor activity in the horizontal activity”. The “infiltration of immune cells into the spinal cord” value in data set [2] (p.o. 0.3 and 1.0 mg/kg) is “diminished after ORY-2001 treatment”. The “other motor deficits (vertical activity, rotarod)” value in data set [2] (p.o. 0.3 and 1.0 mg/kg) was “partially reduced other motor deficits”. Moreover, the clinical score entry in data set [2] (p.o. 0.3 and 1.0 mg/kg, days 72-76 and 79-83 post-infection) is “reduced the clinical score”. Also, the astroglial activation entry in data set [2] (spinal cord) is recorded as “partially limited astroglial activation”. The axon integrity result in data set [2] (spinal cord) was “increased axon integrity”. For the same compound, in data set [2] (spinal cord), the “microglial activation (AIF-1 positive cells)” value is listed as “significantly reduced microglial activation”. The “total number of circulating lymphocytes” value was “did not significantly impact the total number of circulating lymphocytes” in the data set with circulating lymphocytes and “do not significantly impact the total number of circulating lymphocytes; also recorded: do not significantly affect hematology or lymphocyte counts” in the data set on circulating lymphocytes (listed as vafidemstat). Moreover, the gastrointestinal toxicity entry in the data set with circulating lymphocytes (at effective doses, listed as vafidemstat) is recorded as “did not induce any signs of gastrointestinal toxicity; also recorded: without signs of gastro-intestinal toxicity”.

For `CCCCCCCCc1ccc(CCC(N)(CO)CO)cc1` [FTY720, Fingolimod, reference compound], at recombinant HDAC2, the “impact on recombinant HDAC2 activity” value is given as “did not inhibit HDAC; also recorded: unable to confirm the previous studies reporting that FTY720 or FTY720-P had any significant impact”.
